Consider three compounds from DBAASP.

≈ marks a conversion by molar mass, not a printed value. Where “and” joins values, the source holds several entries; their conditions need not be identical. Identical values can stand only once. Bounds are passed on as bounds.

Test systems include Candida albicans; Staphylococcus aureus MR; Escherichia coli; Staphylococcus aureus; Klebsiella pneumoniae.
Common to all, as to test: ≥ marks a high value that may be exact or a test limit, other limits are often not marked, values filed in µg/mL are converted to µM
In assay [1] the test system is Mycobacterium tuberculosis H37Rv.
In assay [2] the test system is Staphylococcus aureus ATCC 25923.
Assay [3] concerns Candida albicans ATCC 24433.
The subject of assay [4] is Pseudomonas aeruginosa PAO1.
For assay [5], the system named is Escherichia coli ATCC 25922.
Assay [6] concerns Pseudomonas aeruginosa ATCC 27853.
The subject of assay [7] is Pseudomonas aeruginosa PA14.
Assay [8] has as its system Escherichia coli ATCC 8739.

As to `CC[C@H](C)[C@H](NC(=O)[C@H](Cc1c[nH]c2ccccc12)NC(=O)[C@H](CCCN=C(N)N)NC(=O)[C@H](CCCCN)NC(=O)[C@H](C)NC(=O)[C@H](CC(C)C)NC(=O)[C@H](CCCN=C(N)N)NC(=O)[C@H](CC(=O)O)NC(=O)[C@@H](NC(=O)[C@H](CC(N)=O)NC(=O)[C@H](CCC(=O)O)NC(=O)[C@H](CCC(=O)O)NC(=O)[C@H](CO)NC(=O)[C@@H](NC(=O)[C@H](CC(N)=O)NC(=O)[C@H](CCCN=C(N)N)NC(=O)[C@H](C)N)C(C)C)C(C)C)C(=O)N[C@@H](CCCCN)C(=O)O` [ARNVSEENVDRLAKRWIK], the MIC in assay [1] is ≥ 68.7 µM.
Consider `CC[C@H](C)[C@@H]1NC(=O)[C@H](CCC(N)=O)NC(=O)[C@H](CCC(=O)O)NC(=O)[C@H](CCC(=O)O)NC(=O)[C@H](CCCCN)NC(=O)CNC(=O)[C@H](CC(C)C)NC(=O)[C@@H]2CSSC[C@@H](C(=O)N[C@@H](CCCN=C(N)N)C(=O)N[C@@H](CCCCN)C(=O)N[C@@H](CCCCN)C(=O)N[C@@H](CCCCN)C(=O)O)NC(=O)[C@@H]3CSSC[C@H](NC(=O)[C@H](Cc4ccccc4)NC(=O)[C@H](Cc4ccccc4)NC(=O)[C@H](CCCCN)NC(=O)[C@H](CCCN=C(N)N)NC(=O)[C@H](CC(C)C)NC(=O)[C@@H](NC(=O)[C@H](CCCCN)NC(=O)[C@@H]4CCCN4C(=O)[C@H](CC(C)C)NC(=O)[C@@H](N)Cc4ccccc4)[C@@H](C)O)C(=O)N[C@@H](CCCN=C(N)N)C(=O)N[C@@H]([C@@H](C)CC)C(=O)N[C@@H](CCCN=C(N)N)C(=O)NCC(=O)NCC(=O)N[C@@H](CCCN=C(N)N)C(=O)N[C@@H](CSSC[C@H](NC(=O)[C@H](CCCN=C(N)N)NC(=O)CNC1=O)C(=O)N[C@@H](CO)C(=O)N[C@@H](CC(N)=O)C(=O)N[C@@H](CO)C(=O)NCC(=O)N[C@@H](CCCN=C(N)N)C(=O)N[C@@H](CCCCN)C(=O)N3)C(=O)N[C@@H](C)C(=O)N[C@@H](C(C)C)C(=O)N[C@@H](CC(C)C)C(=O)N[C@@H](CC(N)=O)C(=O)N2` [FLPKTLRKFFCRIRGGRCAVLNCLGKEEQIGRCSNSGRKCCRKKK], for which the MIC is 2.41 µM (≈ 12.5 µg/mL) against Candida albicans, 0.385 µM (≈ 2 µg/mL) in assay [2], 4.82 µM (≈ 25 µg/mL) against Staphylococcus aureus MR and 2.41 µM (≈ 12.5 µg/mL) in [3].
For the compound `CC[C@H](C)[C@H](NC(=O)[C@H](CCCCN)NC(=O)[C@H](CC(C)C)NC(=O)[C@H](CCCN=C(N)N)NC(=O)[C@H](CC(C)C)NC(=O)[C@H](CCCCN)NC(=O)[C@H](CCCCN)NC(=O)[C@H](CC(C)C)NC(=O)[C@H](CC(C)C)NC(=O)[C@H](CCCCN)NC(=O)[C@H](CCCCN)NC(=O)[C@H](CC(N)=O)NC(=O)[C@H](CCCN=C(N)N)NC(=O)[C@H](C)NC(=O)[C@H](CCSC)NC(=O)[C@@H]1CCCN1)C(=O)N[C@@H](C)C(=O)N[C@@H](Cc1ccccc1)C(=O)N[C@@H](CCCCN)C(=O)O` [PMARNKKLLKKLRLKIAFK], the MIC in assay [4] is 8 µM (≈ 18.4 µg/mL); against Escherichia coli, 8 µM (≈ 18.4 µg/mL); in assay [5], 8 µM (≈ 18.4 µg/mL); in [6], 16 µM (≈ 36.8 µg/mL); in assay [7], 8 µM (≈ 18.4 µg/mL); in [2] it was 64 µM and 55.7 µM. Moreover, the MIC was 8 µM and 6.97 µM in assay [8]; > 64 µM in the assay on Staphylococcus aureus; 16 µM (≈ 36.8 µg/mL) against Klebsiella pneumoniae.

What is called MIC is the least concentration at which growth counts as inhibited.
